The source of these data is patent US8299020B2, “Antimicrobial peptides and methods of their use” (The Ohio State University Research Foundation, priority 2006, dated 2012).

Read-outs that look alike come from different tables or passages of the source.

The nature of one series: solubility in water. The format is physicochemical. As to conditions: neutral water.
For a further series, the system named is Acinetobacter baumannii. As to conditions: background statement; cited from earlier work.
Series [1] has as its system gram-negative bacteria. The series is described as follows: bioassay of activity against gram-negative bacteria. Type of series: cell-based. Here is the method: Antimicrobial activity determination. A qualitative and quantitative bioassay for antimicrobial potency was done using the spot-on-lawn method. An indicator lawn was prepared by pouring 10 ml soft agar (seeded with 200 μl overnight indicator culture) onto tryptose agar as a basal medium, in a petri dish. Escherichia coli K-12 and Lactobacillus plantarum ATCC 8014 were generally used as the gram-negative and gram-positive sensitive indicators, respectively, but other bacteria were tested to determine the OSY-DF antimicrobial spectrum (Table 1). For qualitative tests, aliquots (10 μl) of cell-free culture supernatant (pH 6.5) were spotted on indicator lawns, and the plates were incubated overnight for inhibition area observation. A clear inhibition area of ≧3 mm in diameter was recorded as positive. For the quantitative measurements, the cell-free culture supernatant was twofold serially diluted and dilutions were spotted onto the indicator lawn as just described. Antimicrobial activity was expressed in AU/ml; these values are the reciprocal of the highest dilution displaying a clear zone of inhibition that corresponds to 1 ml of the nondiluted supernatant.
Separation and purification by HPLC of the OSY-DF peptide. […] Elution was monitored at a wavelength of 220 nm, and fractions were collected manually for the antimicrobial activity bioassay. […]

The next series has as its system Pseudomonas aeruginosa. As to conditions: background statement; cited from earlier work.
Series [2] has as its system gram-negative bacteria. As to conditions: background statement; cited from earlier work.

As for `C=C1NC(=O)C2CSC(C)C(NC(=O)C3CSC(C)C4NC(=O)[C@H](CC(C)C)NC(=O)C(NC(=O)[C@H](CCCCN)NC(=O)C5CSCC(NC(=O)[C@@H](NC(=O)[C@H](CCCCN)NC(=O)[C@@H](NC(=O)/C(=C/C)NC(=O)/C(=C/C)NC(=O)[C@H](CCCCN)NC(=O)[C@@H](NC(=O)[C@@H](NC(=O)C(=C)NC(=O)[C@H](C)NC(C)=O)[C@@H](C)CC)[C@@H](C)CC)[C@@H](C)CC)C(C)C)C(=O)N[C@@H](CCCCN)C(=O)N[C@@H](C)C(=O)N[C@@H](C(C)C)C(=O)N5)C(C)SCC(NC4=O)C(=O)N[C@@H]([C@@H](C)CC)C(=O)N3)C(=O)NCC(=O)NC(CSCC(C(=O)N[C@@H](CCCCN)C(=O)O)NC(=O)[C@H](CC(N)=O)NC1=O)C(=O)N2` (stereo partly drawn) [Paenibacillin, (CH3CO-^1A)-Dha-I-I-K-Dhb-Dhb-I-K-V-A-K-A-V-A-K-Abu-L-Abu-A-I-A-Abu-G-A-A-Dha-N-A-K^30], the solubility in water entry in “solubility in water” was “easy to dissolve”; in the series “solubility in water” (listed as OSY-DF peptide), “readily soluble”.
Regarding polymyxin E1, the “activity against Acinetobacter baumannii” value in the series with Acinetobacter baumannii is given as “active”. Also, the “activity against gram-negative bacteria” value in the series with gram-negative bacteria [1] is “anti-gram-negative activity”; in the series on gram-negative bacteria [2], “specifically active”. For the same compound, the “activity against Pseudomonas aeruginosa” value in the series with Pseudomonas aeruginosa is listed as “active”.
